From ChEMBL document CHEMBL1806380, “Rigidized 1-aryl sulfonyl tryptamines: synthesis and pharmacological evaluation as 5-HT6 receptor ligands” (Bioorg Med Chem Lett, 2011)

How the values were obtained:
[1] = biological target: 5-hydroxytryptamine receptor 6 (Homo sapiens) (UniProt P50406); test: Binding affinity to human recombinant 5HT6 receptor expressed in CHO cells co-expressing pCRE-Luc gene assessed as modulation of serotonin-induced intracellular cAMP level after 4 hrs by luciferase based luminescence assay; assay type: cell-based
5-hydroxytryptamine receptor 6 (Homo sapiens), sequence (P50406 whole entry): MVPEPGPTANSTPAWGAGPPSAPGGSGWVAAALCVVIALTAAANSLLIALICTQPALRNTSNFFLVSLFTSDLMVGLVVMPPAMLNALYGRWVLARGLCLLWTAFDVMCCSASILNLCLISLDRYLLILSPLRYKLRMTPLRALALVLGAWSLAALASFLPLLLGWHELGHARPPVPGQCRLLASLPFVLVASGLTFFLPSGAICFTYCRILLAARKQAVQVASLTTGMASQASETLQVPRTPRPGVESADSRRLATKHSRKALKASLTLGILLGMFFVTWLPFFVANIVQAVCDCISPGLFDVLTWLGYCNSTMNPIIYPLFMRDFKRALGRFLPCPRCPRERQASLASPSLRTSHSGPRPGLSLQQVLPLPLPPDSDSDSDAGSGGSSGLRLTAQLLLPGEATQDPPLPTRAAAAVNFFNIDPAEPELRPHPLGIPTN

[2] = biological target: 5-hydroxytryptamine receptor 2A (Homo sapiens) (UniProt P28223); test: Inhibition of 5HT2A receptor at 0.5 uM
5-hydroxytryptamine receptor 2A (Homo sapiens), sequence (P28223 whole entry): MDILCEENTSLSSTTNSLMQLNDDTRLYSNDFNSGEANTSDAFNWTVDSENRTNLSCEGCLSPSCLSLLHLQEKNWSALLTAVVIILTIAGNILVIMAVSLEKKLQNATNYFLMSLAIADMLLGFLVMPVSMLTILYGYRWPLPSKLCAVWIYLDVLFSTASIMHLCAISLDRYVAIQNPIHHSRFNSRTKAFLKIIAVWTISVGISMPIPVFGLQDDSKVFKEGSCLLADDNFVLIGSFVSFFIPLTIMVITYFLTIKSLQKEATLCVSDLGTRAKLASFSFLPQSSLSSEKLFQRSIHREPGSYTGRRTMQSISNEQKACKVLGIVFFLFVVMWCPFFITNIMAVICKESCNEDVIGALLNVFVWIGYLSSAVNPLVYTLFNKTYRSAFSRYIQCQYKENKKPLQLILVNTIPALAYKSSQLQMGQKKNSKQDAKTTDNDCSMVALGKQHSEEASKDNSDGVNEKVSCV

[3] = biological target: T1, 5-hydroxytryptamine receptor 2C (Homo sapiens) (UniProt P28335); test: Inhibition of 5HT2C receptor at 0.5 uM
T1 sequence (whole entry): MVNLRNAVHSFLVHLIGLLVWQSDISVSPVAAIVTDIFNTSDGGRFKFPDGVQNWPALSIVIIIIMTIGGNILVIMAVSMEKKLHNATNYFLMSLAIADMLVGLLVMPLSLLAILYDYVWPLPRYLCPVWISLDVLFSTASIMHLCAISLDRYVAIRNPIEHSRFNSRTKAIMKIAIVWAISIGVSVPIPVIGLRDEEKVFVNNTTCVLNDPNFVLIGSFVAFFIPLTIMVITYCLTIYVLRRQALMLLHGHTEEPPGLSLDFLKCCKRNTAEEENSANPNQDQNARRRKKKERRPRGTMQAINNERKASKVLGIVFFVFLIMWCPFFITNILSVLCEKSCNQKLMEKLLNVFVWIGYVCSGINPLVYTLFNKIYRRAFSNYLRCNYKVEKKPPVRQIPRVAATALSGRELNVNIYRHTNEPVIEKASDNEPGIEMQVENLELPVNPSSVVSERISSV

[4] = biological target: Histamine H1 receptor (Homo sapiens) (UniProt P35367); test: Inhibition of histamine H1 receptor at 0.5 uM
Histamine H1 receptor (Homo sapiens), sequence (P35367 whole entry): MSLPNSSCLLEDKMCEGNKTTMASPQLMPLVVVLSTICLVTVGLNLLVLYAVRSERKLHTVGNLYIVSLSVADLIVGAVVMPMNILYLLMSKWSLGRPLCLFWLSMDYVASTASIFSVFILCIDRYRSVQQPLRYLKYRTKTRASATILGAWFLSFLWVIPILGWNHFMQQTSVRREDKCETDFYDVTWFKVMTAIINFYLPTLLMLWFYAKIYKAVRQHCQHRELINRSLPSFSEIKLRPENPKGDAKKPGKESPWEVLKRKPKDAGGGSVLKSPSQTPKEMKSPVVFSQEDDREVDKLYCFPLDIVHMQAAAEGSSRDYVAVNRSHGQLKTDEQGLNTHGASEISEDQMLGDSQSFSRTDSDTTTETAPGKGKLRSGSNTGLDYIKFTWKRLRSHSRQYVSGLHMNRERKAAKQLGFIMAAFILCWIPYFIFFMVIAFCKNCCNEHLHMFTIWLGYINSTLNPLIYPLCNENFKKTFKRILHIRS

[5] = biological target: Sodium-dependent noradrenaline transporter (Homo sapiens) (UniProt P23975); test: Inhibition of NET at 0.5 uM
Sodium-dependent noradrenaline transporter (Homo sapiens), sequence (P23975 whole entry): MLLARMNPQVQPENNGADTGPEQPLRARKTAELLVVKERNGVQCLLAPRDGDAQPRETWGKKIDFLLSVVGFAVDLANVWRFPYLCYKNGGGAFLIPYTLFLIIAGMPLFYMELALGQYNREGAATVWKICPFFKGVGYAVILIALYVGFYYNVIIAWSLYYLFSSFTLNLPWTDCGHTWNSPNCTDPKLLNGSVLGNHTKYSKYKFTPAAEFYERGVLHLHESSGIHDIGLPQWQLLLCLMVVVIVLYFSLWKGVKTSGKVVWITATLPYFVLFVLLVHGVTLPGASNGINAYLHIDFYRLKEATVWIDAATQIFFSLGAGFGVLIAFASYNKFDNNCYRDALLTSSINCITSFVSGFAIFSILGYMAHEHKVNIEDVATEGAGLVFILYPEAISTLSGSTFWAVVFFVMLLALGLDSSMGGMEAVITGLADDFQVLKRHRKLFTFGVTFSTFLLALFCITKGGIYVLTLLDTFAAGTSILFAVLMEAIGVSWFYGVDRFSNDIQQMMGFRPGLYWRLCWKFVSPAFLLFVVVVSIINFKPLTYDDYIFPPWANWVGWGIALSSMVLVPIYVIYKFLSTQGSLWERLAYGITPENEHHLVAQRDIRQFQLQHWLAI

[6] = biological target: T2, Muscarinic acetylcholine receptor M1 (Homo sapiens) (UniProt P11229); test: Binding affinity to human muscarinic M1 receptor expressed in CHO cells co-expressing pCRE-Luc gene assessed as modulation of acetylcholine-induced intracellular cAMP level at 0.5 uM after 5 hrs by luciferase based luminescence assay; assay type: cell-based
T2 sequence (whole entry): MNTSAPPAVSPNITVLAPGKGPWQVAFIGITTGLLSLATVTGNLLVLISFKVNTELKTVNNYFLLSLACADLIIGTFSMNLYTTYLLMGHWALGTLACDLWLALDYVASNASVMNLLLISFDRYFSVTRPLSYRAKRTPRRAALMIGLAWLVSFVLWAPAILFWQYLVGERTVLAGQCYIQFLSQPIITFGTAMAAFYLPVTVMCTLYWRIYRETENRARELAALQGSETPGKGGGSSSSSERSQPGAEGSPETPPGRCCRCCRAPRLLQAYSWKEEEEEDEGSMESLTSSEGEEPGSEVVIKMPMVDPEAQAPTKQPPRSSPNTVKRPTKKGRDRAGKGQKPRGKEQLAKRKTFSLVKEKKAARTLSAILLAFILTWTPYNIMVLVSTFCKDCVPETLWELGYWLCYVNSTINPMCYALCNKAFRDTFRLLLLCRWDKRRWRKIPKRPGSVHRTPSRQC

[7] = biological target: 5-hydroxytryptamine receptor 4 (Homo sapiens) (UniProt Q13639); test: Binding affinity to human recombinant 5HT4 receptor expressed in CHO cells co-expressing pCRE-Luc gene assessed as modulation of serotonin-induced intracellular cAMP level at 0.5 uM after 5 hrs by luciferase based luminescence assay; assay type: cell-based
5-hydroxytryptamine receptor 4 (Homo sapiens), sequence (Q13639 whole entry): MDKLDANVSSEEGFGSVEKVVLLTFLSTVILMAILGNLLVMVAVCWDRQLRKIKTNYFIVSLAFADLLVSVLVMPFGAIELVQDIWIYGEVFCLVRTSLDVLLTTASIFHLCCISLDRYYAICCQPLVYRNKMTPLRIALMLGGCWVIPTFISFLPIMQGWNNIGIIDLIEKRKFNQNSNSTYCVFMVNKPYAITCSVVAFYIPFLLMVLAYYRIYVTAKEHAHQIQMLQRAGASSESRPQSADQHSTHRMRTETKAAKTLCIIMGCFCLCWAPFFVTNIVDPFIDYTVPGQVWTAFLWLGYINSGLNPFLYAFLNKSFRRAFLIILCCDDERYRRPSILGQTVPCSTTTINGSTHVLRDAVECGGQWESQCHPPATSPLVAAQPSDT

[8] = biological target: D(2) dopamine receptor (Homo sapiens) (UniProt P14416); test: Inhibition of dopamine D2 receptor at 0.5 uM
D(2) dopamine receptor (Homo sapiens), sequence (P14416 whole entry): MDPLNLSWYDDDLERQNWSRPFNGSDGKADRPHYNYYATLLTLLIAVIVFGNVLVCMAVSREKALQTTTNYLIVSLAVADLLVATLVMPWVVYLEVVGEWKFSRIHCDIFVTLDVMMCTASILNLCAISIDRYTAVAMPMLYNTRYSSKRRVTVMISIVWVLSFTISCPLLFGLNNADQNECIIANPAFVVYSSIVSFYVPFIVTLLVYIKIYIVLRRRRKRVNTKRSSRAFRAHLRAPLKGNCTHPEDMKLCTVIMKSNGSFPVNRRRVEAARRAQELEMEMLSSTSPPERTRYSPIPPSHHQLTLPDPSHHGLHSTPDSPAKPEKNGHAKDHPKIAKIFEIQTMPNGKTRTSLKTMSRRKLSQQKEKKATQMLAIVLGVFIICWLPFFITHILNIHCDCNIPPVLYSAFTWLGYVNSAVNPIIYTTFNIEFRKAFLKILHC

[9] = biological target: Sodium-dependent serotonin transporter (Homo sapiens) (UniProt P31645); test: Inhibition of SERT at 0.5 uM
Sodium-dependent serotonin transporter (Homo sapiens), sequence (P31645 whole entry, looked up): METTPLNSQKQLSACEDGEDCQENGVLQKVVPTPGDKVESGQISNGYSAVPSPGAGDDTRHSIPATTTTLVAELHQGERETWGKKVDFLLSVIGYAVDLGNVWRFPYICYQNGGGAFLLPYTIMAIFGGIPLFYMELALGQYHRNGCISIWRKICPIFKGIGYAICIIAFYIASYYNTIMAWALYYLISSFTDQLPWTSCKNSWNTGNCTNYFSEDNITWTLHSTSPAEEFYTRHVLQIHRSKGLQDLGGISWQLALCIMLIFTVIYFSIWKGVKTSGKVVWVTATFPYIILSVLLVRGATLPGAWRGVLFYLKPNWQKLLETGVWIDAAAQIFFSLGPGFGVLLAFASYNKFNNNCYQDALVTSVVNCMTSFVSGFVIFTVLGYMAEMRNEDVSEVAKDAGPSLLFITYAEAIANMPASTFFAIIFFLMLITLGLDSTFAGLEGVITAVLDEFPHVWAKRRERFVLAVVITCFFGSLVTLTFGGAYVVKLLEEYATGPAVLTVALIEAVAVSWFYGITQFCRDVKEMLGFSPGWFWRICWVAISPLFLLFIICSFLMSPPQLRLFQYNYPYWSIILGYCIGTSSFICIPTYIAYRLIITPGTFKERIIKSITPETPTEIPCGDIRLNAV

[10] = biological target: 5-hydroxytryptamine receptor 7 (Rattus norvegicus) (UniProt P32305); test: Binding affinity to rat 5HT7 receptor expressed in CHO cells co-expressing pCRE-Luc gene assessed as modulation of serotonin-induced intracellular cAMP level at 0.5 uM after 5 hrs by luciferase based luminescence assay; assay type: cell-based
5-hydroxytryptamine receptor 7 (Rattus norvegicus), sequence (P32305 whole entry): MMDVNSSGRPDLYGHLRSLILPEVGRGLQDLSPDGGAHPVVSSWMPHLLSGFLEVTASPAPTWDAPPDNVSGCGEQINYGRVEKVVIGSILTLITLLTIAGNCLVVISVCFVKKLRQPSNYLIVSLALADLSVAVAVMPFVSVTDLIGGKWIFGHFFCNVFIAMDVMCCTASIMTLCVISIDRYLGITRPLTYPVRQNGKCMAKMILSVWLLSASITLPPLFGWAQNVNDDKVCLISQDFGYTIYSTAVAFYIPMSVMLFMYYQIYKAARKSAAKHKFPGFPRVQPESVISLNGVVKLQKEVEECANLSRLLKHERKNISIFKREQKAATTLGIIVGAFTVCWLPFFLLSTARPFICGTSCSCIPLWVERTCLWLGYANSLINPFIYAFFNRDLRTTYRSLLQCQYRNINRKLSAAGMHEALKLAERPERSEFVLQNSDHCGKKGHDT

[11] = biological target: Sodium-dependent dopamine transporter (Homo sapiens) (UniProt Q01959); test: Inhibition of DAT at 0.5 uM
Sodium-dependent dopamine transporter (Homo sapiens), sequence (Q01959 whole entry): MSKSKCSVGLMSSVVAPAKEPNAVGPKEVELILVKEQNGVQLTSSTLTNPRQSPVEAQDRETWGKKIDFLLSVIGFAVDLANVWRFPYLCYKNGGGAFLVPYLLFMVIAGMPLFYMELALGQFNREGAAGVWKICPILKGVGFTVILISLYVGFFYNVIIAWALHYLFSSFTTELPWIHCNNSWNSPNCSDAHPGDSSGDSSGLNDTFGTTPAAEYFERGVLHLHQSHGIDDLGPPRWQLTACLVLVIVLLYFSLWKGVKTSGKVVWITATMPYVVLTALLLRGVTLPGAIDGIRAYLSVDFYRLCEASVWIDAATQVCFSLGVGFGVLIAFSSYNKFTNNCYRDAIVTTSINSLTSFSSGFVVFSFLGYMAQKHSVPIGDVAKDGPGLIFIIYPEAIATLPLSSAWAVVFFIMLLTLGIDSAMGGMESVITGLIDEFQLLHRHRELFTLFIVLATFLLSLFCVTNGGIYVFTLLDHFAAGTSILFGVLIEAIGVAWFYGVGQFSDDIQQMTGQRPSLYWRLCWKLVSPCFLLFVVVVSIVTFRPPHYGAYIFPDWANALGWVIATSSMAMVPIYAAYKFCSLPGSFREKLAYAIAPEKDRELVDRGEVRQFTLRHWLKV

[12] = biological target: T3, Alpha-1B adrenergic receptor (Homo sapiens) (UniProt P35368); test: Inhibition of adrenergic alpha1b receptor at 0.5 uM
T3 sequence (whole entry): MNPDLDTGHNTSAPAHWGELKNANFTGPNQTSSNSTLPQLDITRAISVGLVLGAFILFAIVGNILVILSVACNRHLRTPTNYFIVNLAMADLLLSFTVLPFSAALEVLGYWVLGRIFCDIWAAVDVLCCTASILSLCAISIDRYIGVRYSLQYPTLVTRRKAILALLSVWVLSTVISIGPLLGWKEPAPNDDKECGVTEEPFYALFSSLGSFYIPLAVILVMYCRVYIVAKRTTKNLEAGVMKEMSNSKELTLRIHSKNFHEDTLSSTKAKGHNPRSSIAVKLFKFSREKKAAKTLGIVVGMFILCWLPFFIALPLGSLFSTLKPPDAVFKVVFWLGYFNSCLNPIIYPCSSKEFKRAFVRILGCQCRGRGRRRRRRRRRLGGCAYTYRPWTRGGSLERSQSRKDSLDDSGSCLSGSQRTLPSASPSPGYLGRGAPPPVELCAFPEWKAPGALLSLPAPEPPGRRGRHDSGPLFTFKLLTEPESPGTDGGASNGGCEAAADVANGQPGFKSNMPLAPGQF

[13] = Metabolic stability in human liver microsomes assessed as drug metabolized level after 30 mins; assay type: ADME, Microsome; details: read-out: Activity
[14] = Metabolic stability in rat liver microsomes assessed as drug metabolized level after 30 mins; assay type: ADME, Microsome; details: read-out: Activity

SMILES: COc1ccc2c(c1)c(C1CCN(C)C1)cn2S(=O)(=O)c1ccccc1 (racemic)
- Kb [1]: 0.89 nM

SMILES: COc1ccc2c(c1)c(C1=C(Cl)CN(C)C1)cn2S(=O)(=O)c1cccc(Cl)c1
- Kb [1]: 0.84 nM

SMILES: CC(C)Oc1ccc2c(c1)c(C1=C(Cl)CN(C)C1)cn2S(=O)(=O)c1ccc(F)cc1
- Kb [1]: 7.27 nM

SMILES: COc1ccc(S(=O)(=O)n2cc(C3=C(Cl)CN(C)C3)c3cc(OC)ccc32)cc1
- inhibition [2]: < 50%
- inhibition [3]: < 50%
- inhibition [4]: < 50%
- inhibition [5]: < 50%
- inhibition [6]: < 50%
- inhibition [7]: < 50%
- Kb [1]: 1.65 nM
- inhibition [8]: < 50%
- inhibition [9]: < 50%
- inhibition [10]: < 50%
- inhibition [11]: < 50%
- inhibition [12]: < 50%

SMILES: CC(C)Oc1ccc2c(c1)c(C1CCN(C)C1)cn2S(=O)(=O)c1ccccc1Br (racemic)
- Kb [1]: 4.15 nM

SMILES: CCOc1ccc2c(c1)c(C1=C(Cl)CN(C)C1)cn2S(=O)(=O)c1ccccc1Br
- Kb [1]: 0.4 nM

SMILES: COc1ccc2c(c1)c(C1=C(Cl)CN(C)C1)cn2S(=O)(=O)c1ccc(C(C)C)cc1
- Kb [1]: 0.25 nM

SMILES: CC(C)Oc1ccc2c(c1)c(C1=C(Cl)CN(C)C1)cn2S(=O)(=O)c1ccccc1
- Kb [1]: 0.7 nM

SMILES: CN1CC(Cl)=C(c2cn(S(=O)(=O)c3ccccc3)c3ccc(F)cc23)C1
- Kb [1]: 0.1 nM

SMILES: CCOc1ccc2c(c1)c(C1CCN(C)C1)cn2S(=O)(=O)c1ccccc1Br (racemic)
- Kb [1]: 0.1 nM

SMILES: CN1CCC(c2cn(S(=O)(=O)c3ccccc3Br)c3ccccc23)C1 (racemic)
- Kb [1]: 0.13 nM

SMILES: CCN1CC(Cl)=C(c2cn(S(=O)(=O)c3ccccc3Br)c3ccccc23)C1
- Kb [1]: 1.1 nM

SMILES: COc1ccc2c(c1)c(C1=C(Cl)CN(C)C1)cn2S(=O)(=O)c1ccccc1
- inhibition [2]: < 50%
- inhibition [3]: < 50%
- inhibition [4]: < 50%
- inhibition [5]: < 50%
- inhibition [6]: < 50%
- inhibition [7]: < 50%
- metabolised at 0.5 h [13]: 97%
- Kb [1]: 0.1 nM
- inhibition [8]: < 50%
- inhibition [9]: < 50%
- inhibition [10]: < 50%
- metabolised at 0.5 h [14]: 96%
- inhibition [11]: < 50%
- inhibition [12]: < 50%

SMILES: CCN1CCC(c2cn(S(=O)(=O)c3ccccc3Br)c3ccc(OC)cc23)C1 (racemic)
- Kb [1]: 1.3 nM

SMILES: COc1ccc2c(c1)c(C1CCN(C)C1)cn2S(=O)(=O)c1ccccc1Br (racemic)
- Kb [1]: 0.13 nM

SMILES: CCN1CC(Cl)=C(c2cn(S(=O)(=O)c3ccc(OC)cc3)c3ccc(OC)cc23)C1
- Kb [1]: 14.5 nM

SMILES: CN1CCC(c2cn(S(=O)(=O)c3ccc(F)cc3)c3ccccc23)C1 (racemic)
- Kb [1]: 1 nM

SMILES: COc1ccc(S(=O)(=O)n2cc(C3=C(Cl)CN(C)C3)c3ccccc32)cc1
- Kb [1]: 10 nM

SMILES: CCN1CC(Cl)=C(c2cn(S(=O)(=O)c3ccc(Br)cc3)c3ccccc23)C1
- Kb [1]: 3.9 nM

SMILES: COc1ccc2c(c1)c(C1=C(Cl)CN(C)C1)cn2S(=O)(=O)c1ccc(Br)cc1
- Kb [1]: 1.78 nM

SMILES: COc1ccc2c(c1)c(CCN(C)C)cn2S(=O)(=O)c1ccccc1
- Kb [1]: 5.8 nM
